Source: ChEMBL document CHEMBL4507291 (2021)

Columns and labels:
[1] = biological target: Phosphatidylinositol 4,5-bisphosphate 3-kinase catalytic subunit delta isoform (Homo sapiens) (UniProt O00329)
[2] = biological target: Serine/threonine-protein kinase 32B (Homo sapiens) (UniProt Q9NY57)
[3] = biological target: 5-hydroxytryptamine receptor 1B (Homo sapiens) (UniProt P28222); details: Compound concentration 10.0 uM
[4] = biological target: Ribosomal protein S6 kinase alpha-1 (Homo sapiens) (UniProt Q15418)
[5] = biological target: RAC-beta serine/threonine-protein kinase (Homo sapiens) (UniProt P31751)
[6] = biological target: Mitogen-activated protein kinase kinase kinase 15 (Homo sapiens) (UniProt Q6ZN16)
[7] = biological target: Calcium/calmodulin-dependent protein kinase type II subunit gamma (Homo sapiens) (UniProt Q13555)
Sequence of Calcium/calmodulin-dependent protein kinase type II subunit gamma (Homo sapiens) (Q13555 whole entry): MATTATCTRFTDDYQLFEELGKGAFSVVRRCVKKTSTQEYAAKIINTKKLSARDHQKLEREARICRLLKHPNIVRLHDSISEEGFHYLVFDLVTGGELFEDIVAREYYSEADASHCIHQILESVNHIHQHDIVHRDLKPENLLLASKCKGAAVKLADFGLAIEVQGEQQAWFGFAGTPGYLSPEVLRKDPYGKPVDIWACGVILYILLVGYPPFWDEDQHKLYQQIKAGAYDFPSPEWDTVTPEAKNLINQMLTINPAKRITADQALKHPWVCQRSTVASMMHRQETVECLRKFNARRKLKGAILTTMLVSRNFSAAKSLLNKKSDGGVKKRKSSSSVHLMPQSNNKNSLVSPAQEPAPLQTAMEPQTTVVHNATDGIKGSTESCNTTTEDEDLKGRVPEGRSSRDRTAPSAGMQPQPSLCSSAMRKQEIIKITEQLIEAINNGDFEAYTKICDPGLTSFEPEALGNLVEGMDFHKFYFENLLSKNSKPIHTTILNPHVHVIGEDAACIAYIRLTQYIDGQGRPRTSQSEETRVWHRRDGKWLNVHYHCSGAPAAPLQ

[8] = biological target: Phosphatidylinositol 4-phosphate 5-kinase type-1 gamma (Homo sapiens) (UniProt O60331)
Sequence of Phosphatidylinositol 4-phosphate 5-kinase type-1 gamma (Homo sapiens) (O60331 whole entry): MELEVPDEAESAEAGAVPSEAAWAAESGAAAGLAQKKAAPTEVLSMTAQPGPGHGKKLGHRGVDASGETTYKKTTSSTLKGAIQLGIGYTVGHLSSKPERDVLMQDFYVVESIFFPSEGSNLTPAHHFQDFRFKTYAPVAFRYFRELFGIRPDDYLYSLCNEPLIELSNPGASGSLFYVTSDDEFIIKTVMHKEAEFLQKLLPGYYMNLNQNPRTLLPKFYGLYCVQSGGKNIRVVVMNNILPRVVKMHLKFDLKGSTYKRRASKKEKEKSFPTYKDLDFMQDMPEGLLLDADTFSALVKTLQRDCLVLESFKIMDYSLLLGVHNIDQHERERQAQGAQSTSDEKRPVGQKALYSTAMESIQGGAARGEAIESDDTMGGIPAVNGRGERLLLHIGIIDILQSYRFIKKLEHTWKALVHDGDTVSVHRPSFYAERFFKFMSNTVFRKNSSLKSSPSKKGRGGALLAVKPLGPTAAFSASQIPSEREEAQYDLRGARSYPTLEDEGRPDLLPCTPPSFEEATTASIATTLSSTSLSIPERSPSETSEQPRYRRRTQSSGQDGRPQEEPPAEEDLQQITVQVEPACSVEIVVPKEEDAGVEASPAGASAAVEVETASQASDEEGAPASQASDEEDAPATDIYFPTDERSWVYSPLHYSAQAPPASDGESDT

[9] = biological target: Homeodomain-interacting protein kinase 2 (Homo sapiens) (UniProt Q9H2X6)
Sequence of Homeodomain-interacting protein kinase 2 (Homo sapiens) (Q9H2X6 whole entry, looked up): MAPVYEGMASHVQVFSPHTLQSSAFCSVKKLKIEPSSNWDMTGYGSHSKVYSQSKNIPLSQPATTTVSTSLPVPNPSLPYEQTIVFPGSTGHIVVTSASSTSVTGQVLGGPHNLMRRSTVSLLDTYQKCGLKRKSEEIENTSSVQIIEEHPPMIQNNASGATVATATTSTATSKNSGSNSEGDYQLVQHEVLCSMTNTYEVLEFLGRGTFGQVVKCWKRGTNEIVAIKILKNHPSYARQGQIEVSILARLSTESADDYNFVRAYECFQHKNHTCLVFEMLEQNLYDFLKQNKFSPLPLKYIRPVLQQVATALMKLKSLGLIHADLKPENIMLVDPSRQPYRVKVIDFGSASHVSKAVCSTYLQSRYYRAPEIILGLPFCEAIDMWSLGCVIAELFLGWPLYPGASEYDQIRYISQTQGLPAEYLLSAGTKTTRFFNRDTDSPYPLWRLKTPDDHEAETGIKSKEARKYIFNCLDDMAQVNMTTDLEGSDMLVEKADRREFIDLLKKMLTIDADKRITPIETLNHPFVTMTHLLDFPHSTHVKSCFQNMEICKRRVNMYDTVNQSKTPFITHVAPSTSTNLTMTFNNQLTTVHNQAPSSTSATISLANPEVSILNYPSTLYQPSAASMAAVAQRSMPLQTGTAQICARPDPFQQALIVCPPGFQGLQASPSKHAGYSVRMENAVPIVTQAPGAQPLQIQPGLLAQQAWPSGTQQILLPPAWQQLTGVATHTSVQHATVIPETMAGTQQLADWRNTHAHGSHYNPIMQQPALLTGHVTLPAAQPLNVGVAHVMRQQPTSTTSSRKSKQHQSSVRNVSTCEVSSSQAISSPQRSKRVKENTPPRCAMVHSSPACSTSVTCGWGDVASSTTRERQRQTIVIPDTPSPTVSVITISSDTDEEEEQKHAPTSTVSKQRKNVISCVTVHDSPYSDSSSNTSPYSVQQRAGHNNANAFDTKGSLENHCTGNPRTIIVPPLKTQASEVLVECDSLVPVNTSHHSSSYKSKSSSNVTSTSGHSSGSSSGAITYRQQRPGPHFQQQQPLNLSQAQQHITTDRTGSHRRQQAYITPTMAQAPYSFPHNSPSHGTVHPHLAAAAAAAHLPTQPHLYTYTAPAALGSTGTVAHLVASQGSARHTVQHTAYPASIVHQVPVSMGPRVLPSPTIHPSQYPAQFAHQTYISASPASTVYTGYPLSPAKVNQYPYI

[10] = biological target: Serine/threonine-protein kinase MARK1 (Homo sapiens) (UniProt Q9P0L2)
[11] = biological target: Dual specificity mitogen-activated protein kinase kinase 4 (Homo sapiens) (UniProt P45985)
[12] = biological target: Mitogen-activated protein kinase kinase kinase 4 (Homo sapiens) (UniProt Q9Y6R4)
[13] = biological target: Activin receptor type-1-like (Homo sapiens) (UniProt P37023)
Sequence of Activin receptor type-1-like (Homo sapiens) (P37023 whole entry): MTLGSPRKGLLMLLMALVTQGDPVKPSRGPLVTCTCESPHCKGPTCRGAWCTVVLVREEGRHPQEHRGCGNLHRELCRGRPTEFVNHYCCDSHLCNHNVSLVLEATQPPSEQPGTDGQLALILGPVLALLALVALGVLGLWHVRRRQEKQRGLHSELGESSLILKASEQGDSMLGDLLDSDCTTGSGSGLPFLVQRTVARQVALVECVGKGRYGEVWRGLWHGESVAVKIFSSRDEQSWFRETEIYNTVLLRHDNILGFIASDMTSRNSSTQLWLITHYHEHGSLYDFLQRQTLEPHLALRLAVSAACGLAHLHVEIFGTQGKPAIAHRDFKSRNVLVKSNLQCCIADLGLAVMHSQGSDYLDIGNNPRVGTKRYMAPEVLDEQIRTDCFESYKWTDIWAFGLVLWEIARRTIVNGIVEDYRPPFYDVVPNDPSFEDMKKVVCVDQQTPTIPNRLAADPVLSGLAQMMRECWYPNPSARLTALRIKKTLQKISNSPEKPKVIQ

[14] = biological target: Myosin-IIIb (Homo sapiens) (UniProt Q8WXR4)
[15] = biological target: Uncharacterized serine/threonine-protein kinase SBK3 (Homo sapiens) (UniProt P0C264)
[16] = biological target: Calcium/calmodulin-dependent protein kinase type II subunit alpha (Homo sapiens) (UniProt Q9UQM7)
Sequence of Calcium/calmodulin-dependent protein kinase type II subunit alpha (Homo sapiens) (Q9UQM7 whole entry): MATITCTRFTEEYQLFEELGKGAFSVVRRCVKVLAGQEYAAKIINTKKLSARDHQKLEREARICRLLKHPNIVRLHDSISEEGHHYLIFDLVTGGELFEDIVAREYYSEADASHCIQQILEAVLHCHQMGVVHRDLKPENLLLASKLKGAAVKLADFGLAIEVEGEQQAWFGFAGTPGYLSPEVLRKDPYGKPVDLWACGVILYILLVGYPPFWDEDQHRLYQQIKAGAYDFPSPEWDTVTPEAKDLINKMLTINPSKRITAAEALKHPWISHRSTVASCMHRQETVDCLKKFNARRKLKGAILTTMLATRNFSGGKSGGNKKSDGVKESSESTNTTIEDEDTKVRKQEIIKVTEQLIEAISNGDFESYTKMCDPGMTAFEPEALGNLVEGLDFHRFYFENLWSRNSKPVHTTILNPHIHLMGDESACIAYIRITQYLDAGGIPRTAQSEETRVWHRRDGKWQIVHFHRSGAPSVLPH

[17] = biological target: T1, Alpha-1D adrenergic receptor (Homo sapiens) (UniProt P25100); details: Compound concentration 10.0 uM
T1 sequence (whole entry): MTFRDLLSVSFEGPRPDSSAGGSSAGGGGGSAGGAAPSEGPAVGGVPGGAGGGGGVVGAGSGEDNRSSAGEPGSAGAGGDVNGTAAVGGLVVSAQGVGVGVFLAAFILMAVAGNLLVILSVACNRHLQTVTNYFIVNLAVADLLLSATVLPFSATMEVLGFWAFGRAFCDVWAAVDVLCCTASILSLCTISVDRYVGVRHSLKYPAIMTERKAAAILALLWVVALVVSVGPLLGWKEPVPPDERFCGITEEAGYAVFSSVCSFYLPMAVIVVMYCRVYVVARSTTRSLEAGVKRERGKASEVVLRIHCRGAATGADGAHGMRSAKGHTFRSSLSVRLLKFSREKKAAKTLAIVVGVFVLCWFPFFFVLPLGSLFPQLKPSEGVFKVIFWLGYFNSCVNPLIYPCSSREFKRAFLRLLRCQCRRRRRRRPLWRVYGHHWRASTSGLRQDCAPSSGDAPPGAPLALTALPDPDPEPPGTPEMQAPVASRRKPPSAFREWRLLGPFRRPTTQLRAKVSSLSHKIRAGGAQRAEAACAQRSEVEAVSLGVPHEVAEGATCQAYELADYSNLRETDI

[18] = biological target: T2, Dual specificity protein kinase TTK (Homo sapiens) (UniProt P33981)
T2 sequence (whole entry): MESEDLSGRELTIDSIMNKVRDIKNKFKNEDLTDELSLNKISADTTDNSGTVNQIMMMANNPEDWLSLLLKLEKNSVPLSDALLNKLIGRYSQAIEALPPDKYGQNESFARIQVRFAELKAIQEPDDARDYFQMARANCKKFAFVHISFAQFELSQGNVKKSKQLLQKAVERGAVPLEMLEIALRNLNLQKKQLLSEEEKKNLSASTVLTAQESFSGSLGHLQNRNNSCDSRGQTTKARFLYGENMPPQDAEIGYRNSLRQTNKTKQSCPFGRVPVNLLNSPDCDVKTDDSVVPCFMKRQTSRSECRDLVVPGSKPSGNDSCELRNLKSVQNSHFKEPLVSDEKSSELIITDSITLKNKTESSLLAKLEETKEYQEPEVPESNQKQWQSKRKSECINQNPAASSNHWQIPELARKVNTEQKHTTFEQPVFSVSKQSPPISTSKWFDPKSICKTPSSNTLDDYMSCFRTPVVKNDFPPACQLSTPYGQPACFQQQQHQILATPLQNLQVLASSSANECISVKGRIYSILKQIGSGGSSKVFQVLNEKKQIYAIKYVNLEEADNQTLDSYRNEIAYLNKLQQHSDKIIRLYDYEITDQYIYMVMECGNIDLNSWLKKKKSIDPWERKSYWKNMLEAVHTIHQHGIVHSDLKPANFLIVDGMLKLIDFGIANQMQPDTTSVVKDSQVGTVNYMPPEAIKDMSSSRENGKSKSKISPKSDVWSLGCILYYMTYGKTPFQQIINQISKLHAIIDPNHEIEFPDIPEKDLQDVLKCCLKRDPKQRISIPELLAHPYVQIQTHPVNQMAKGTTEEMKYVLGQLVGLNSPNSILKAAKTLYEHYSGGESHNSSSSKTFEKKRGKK

[19] = biological target: Mitogen-activated protein kinase kinase kinase kinase 4 (Homo sapiens) (UniProt O95819)
[20] = biological target: NUAK family SNF1-like kinase 2 (Homo sapiens) (UniProt Q9H093)
Sequence of NUAK family SNF1-like kinase 2 (Homo sapiens) (Q9H093 whole entry): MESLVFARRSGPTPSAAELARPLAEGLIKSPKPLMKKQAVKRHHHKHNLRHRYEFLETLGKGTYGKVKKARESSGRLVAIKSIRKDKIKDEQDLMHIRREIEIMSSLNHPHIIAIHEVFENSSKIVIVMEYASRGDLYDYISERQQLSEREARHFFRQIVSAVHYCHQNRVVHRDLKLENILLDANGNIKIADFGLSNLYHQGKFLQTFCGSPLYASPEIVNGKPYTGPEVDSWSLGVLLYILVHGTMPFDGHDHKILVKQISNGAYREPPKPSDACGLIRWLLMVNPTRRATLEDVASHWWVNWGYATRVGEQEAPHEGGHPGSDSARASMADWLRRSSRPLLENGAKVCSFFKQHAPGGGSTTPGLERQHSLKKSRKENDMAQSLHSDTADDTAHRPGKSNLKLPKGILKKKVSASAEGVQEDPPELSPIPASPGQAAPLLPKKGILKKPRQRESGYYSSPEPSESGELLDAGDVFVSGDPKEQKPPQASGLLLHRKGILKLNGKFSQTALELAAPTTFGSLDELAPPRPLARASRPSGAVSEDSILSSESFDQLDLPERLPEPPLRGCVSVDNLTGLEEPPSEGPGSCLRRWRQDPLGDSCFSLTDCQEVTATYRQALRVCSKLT

[21] = biological target: Cyclin-dependent kinase 2 homolog (Plasmodium falciparum (isolate 3D7)) (UniProt P61075)
[22] = Compound concentration 1000.0 nM
[23] = Compound concentration 100.0 nM

Sequence of Serine/threonine-protein kinase 32B (Homo sapiens) (Q9NY57 whole entry): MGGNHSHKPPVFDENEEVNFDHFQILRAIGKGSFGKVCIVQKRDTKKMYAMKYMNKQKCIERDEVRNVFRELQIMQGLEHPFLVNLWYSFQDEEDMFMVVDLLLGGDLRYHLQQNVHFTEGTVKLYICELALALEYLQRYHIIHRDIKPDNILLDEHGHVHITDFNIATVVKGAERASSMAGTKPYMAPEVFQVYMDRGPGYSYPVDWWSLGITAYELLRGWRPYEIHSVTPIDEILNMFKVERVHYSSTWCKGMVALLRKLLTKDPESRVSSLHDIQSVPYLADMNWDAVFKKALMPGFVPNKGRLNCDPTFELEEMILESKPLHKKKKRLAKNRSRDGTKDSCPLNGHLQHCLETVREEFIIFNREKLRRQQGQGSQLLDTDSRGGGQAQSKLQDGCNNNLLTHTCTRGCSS
Sequence of 5-hydroxytryptamine receptor 1B (Homo sapiens) (P28222 whole entry): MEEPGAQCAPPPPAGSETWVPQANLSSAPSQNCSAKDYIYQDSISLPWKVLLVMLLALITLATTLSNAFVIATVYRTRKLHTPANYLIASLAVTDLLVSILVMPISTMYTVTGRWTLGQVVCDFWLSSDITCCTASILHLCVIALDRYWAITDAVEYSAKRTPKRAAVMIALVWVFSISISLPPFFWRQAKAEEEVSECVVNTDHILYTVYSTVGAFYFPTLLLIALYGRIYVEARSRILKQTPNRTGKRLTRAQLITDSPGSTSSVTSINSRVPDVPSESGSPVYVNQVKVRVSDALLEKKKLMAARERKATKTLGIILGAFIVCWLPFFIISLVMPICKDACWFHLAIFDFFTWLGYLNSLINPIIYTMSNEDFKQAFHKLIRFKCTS

C[C@@H]1CN(c2cc(-c3nn(C)c4ccc(OC5(C)CC5)cc34)ncn2)C[C@H](C)O1 [MLi-2-NC]
inactive: residual activity [1, 22] 97% | residual activity [2, 22] 100% | inhibition [3] 7.83% | residual activity [4, 22] 100% | residual activity [5, 22] 89% | residual activity [6, 22] 80% | residual activity [7, 22] 90% | residual activity [8, 22] 90% | residual activity [9, 22] 74% | residual activity [10, 22] 100% | residual activity [11, 22] 82% | residual activity [12, 22] 100% | residual activity [13, 22] 63% | residual activity [14, 22] 100% | residual activity [15, 22] 100% | residual activity [16, 22] 98% | inhibition [17] 10.2% | residual activity [18, 22] 100% | residual activity [19, 22] 100% | residual activity [20, 22] 68% | residual activity [21, 22] 94%

C[C@@H]1CN(c2cc(-c3n[nH]c4ccc(OC5(C)CC5)cc34)ncn2)C[C@H](C)O1 [MLi-2]
inactive: residual activity [1, 23] 68% | residual activity [2, 23] 92% | inhibition [3] 1.16% | residual activity [4, 23] 97% | residual activity [5, 23] 100% | residual activity [6, 23] 67% | residual activity [7, 23] 100% | residual activity [8, 23] 92% | residual activity [9, 23] 80% | residual activity [10, 23] 100% | residual activity [11, 23] 73% | residual activity [12, 23] 100% | residual activity [13, 23] 94% | residual activity [14, 23] 89% | residual activity [15, 23] 100% | residual activity [16, 23] 100% | inhibition [17] 3.26% | residual activity [18, 23] 74% | residual activity [19, 23] 98% | residual activity [20, 23] 79% | residual activity [21, 23] 80%
